Measured values reported in US20180265423A1, “Pesticide Dispersion in Concentrated Aqueous Fertilizer Solution” (priority 2014, published 2018).
Read-outs that look alike come from different tables or passages of the source.

Assays:
[1] = assay type: physicochemical; details: for crystal growth in the fertilizer solutions tested: review of table 2
From the text: Crystal formation in a suspension concentrate is a complex phenomenon. It is believed that if the solubility of the suspended solid chemical is high in the medium, the suspension concentrate is prone to form crystals of the suspended solid chemical in storage. […] The concentrations of the solid pesticides used in this example were low (at a typical ready-to-apply concentration range). If a solid pesticide forms crystals in such a low concentration, it is not suitable for a ready-to-apply pesticide suspension and mostly likely will not be suitable for a more concentrated suspension in fertilizer. […] By “not suitable” is meant that although it may work to some extent, it is not a good candidate for the pesticide SC.
Samples were prepared by adding the components followed by hand-shaking.

[2] = 30 wt % captan suspension in 10-34-0: flow and storage stability (Example 12); assay type: physicochemical
Method: 10-34-0 fertilizer (56% ammonium polyphosphate by Plant Food Company Inc.) and Phospholan PS-413 surfactant were combined in a container and mixed thoroughly. Captan fungicide was added to the mixture and then the resulting combination was homogenized. The components were added in amounts to provide a composition containing 69.3 wt % of the 10-34-0 fertilizer solution (56% solution), 1.0 wt % surfactant and 29.7 wt % Captan fungicide.

[3] = Use alone, dilution with water or dispersion of the suspensions into fertilizer concentrates; assay type: physicochemical; details: 10-34-0, URAN 32, URAN 28 and 28-40% AMS
[4] = Quick screening of crystal growth potential in fertilizer concentrates and water, solid pesticides containing a carboxylic acid group (Example 2); assay type: physicochemical; details: for suitability for suspension in fertilizer solutions: review of table 3; for Comment: crystal growth: between 0 C. and 40 C.
Method: Samples were prepared by adding the components followed by hand-shaking. Samples were placed at 0° C. and observation was made after 1 day, unless otherwise specified.

[5] = as above; assay type: physicochemical; details: 1 wt % powder pesticide, 98 wt % 10-34-0, 1 wt % Witcolate D-510; between 0 C. and 40 C.
[6] = assay type: physicochemical
Method: 10-34-0 fertilizer (56% ammonium poly phosphate by Plant Food Company Inc.) and Phospholan HE-6614 surfactant were combined in a container and mixed thoroughly. Trifloxystrobin fungicide was added to the mixture and then the resulting combination was homogenized. The components were added in amounts to provide a composition containing 62.38 wt % of the 10-34-0 fertilizer solution (56% solution), 1.0 wt % surfactant and […] Trifloxystrobin fungicide.

[7] = Stability of 50% clothianidin in 50% URAN 32 fertilizer (Example 6); assay type: physicochemical; details: 0.5 g in 100 g URAN 32 fertilizer solution
Method: 0.5 g Witcolate D-510 surfactant was added into 100 g URAN 32 fertilizer solution (50 wt % URAN 32 in water). […] Then 100 g clothianidin was added to the resulting solution and mixed well by hand-shaking. This sample was stable and had about 10% top clear with a smooth bottom suspension after 2 weeks at 40° C.
In other experiments, 0.3% of a pH adjusting agent (40 wt % Citric acid), was included in the SC sample (homogenized sample) and no noticeable effect was observed on stability. Viscosity measurements were made with a Brookfield viscometer at various speeds (rpm) at room temperature with a #64 spindle. This sample was very viscous but it was highly shear-thinning.

[8] = Study of additional surfactants in 10-34-0, 27-4-0 and diluted 10-34-0 fertilizers (Example 8); assay type: physicochemical
[9] = Storage stability of 40% clothianidin SC in 10-34-0 with wetting agent Witcolate D-510 (Example 5); assay type: physicochemical; details: clothianidin suspension in 10-34-0
Method: The test samples were prepared by adding 60 grams of 10-34-0 fertilizer (from Plant Food) to a bottle. Then various amounts of Witcolate D-510 (2-ethylhexyl sulfate) were added to the 10-34-0 fertilizer and mixed well. Finally, 40 grams of clothianidin (technical grade) was added to the mixture and mixed well by shaking by hand.

[10] = 1 wt % powder pesticide in 99 wt % 10-34-0, no wetting agent
[11] = 1 wt % powder pesticide in 99 wt % 40% AMS, no wetting agent
[12] = 1 wt % powder pesticide in 99 wt % URAN 32, no wetting agent
[13] = 1 wt % powder pesticide in 99 wt % Water, no wetting agent
[14] = same SC, after a week at 50° C.
[15] = 1 wt % powder pesticide, 98 wt % 10-34-0, 1 wt % Witcolate D-510
[16] = powder pesticide (glyphosate acid 2, 2,4-D acid 1.3, others 1 wt %) in 10-34-0, no wetting agent
[17] = powder pesticide (glyphosate acid 2, 2,4-D acid 1.3, others 1 wt %) in 10-34-0, no wetting agent, 0° C., 1 day unless otherwise specified
[18] = powder pesticide (glyphosate acid 2, 2,4-D acid 1.3, others 1 wt %) in 40% AMS, no wetting agent, 0° C., 1 day unless otherwise specified
[19] = powder pesticide (glyphosate acid 2, 2,4-D acid 1.3, others 1 wt %) in URAN 32, no wetting agent, 0° C., 1 day unless otherwise specified
[20] = 1 wt % powder pesticide, 98 wt % 40% AMS, 1 wt % Witcolate D-510
[21] = 1 wt % powder pesticide, 98 wt % URAN 32, 1 wt % Witcolate D-510
[22] = 1 wt % powder pesticide, 98 wt % Water, 1 wt % Witcolate D-510

Compound: O=C1C2CC=CCC2C(=O)N1SC(Cl)(Cl)Cl (stereo not drawn) [Captan]
- Comment: powder sank or floated [1, 10]: 0-40 °C Powder sank.
- Comment: suitability [1, 10]: Suitable
- Comment: powder sank or floated [1, 11]: 0-40 °C Powder sank.
- Comment: suitability [1, 11]: Suitable
- Comment: powder sank or floated [1, 12]: 0-40 °C Powder sank.
- Comment: suitability [1, 12]: Suitable
- Comment: powder sank or floated [1, 13]: 0-40 °C Powder sank.
- Comment: suitability [1, 13]: Suitable
- crystal growth in the fertilizer solutions tested [1]: did not have crystal growth
- flow and stability of the resulting SC ([2]; 29.7 wt % Captan, 69.3 wt % 10-34-0 solution, 1.0 wt % Phospholan PS-413, homogenized): easily flowable and stable
- flow at 2° C. ([2]; same SC, 2° C.): still able to flow
- phase separation [2, 14]: no visible phase separation
- used alone, diluted with water, dispersed to a fertilizer concentrate ([3]; 29.7 wt % Captan SC in 10-34-0, gentle stirring): without forming crystals or coagulation

Compound: O=C(O)c1nc(Cl)ccc1Cl [Clopyralid]
- Comment: suitability [4, 15]: Suitable
- Comment: suitability [4, 16]: Suitable
- Comment: crystal growth or other change [4, 17]: No crystal growth
- Comment: dissolution [4, 17]: Not dissolved
- Comment: powder sank or floated [4, 17]: Powder floated
- Comment: crystal growth or other change [4, 18]: Crystal growth at room temp
- Comment: dissolution [4, 18]: Not dissolved
- Comment: powder sank or floated [4, 18]: Powder sank
- Comment: suitability ([4]; powder pesticide (glyphosate acid 2, 2,4-D acid 1.3, others 1 wt %) in URAN 32, no wetting agent): Not suitable
- Comment: dissolution [4, 19]: Dissolved
- Comment: suitability ([4]; powder pesticide (glyphosate acid 2, 2,4-D acid 1.3, others 1 wt %) in Water, no wetting agent): Not suitable
- Comment: dissolution ([4]; powder pesticide (glyphosate acid 2, 2,4-D acid 1.3, others 1 wt %) in Water, no wetting agent, 0° C., 1 day unless otherwise specified): Dissolved
- suitability for suspension in fertilizer solutions [4]: may not be suitable
- Comment: crystal growth [5]: No crystal growth between 0 C.

Compound: Nc1c(Cl)c(Cl)nc(C(=O)O)c1Cl [Picloram]
- Comment: suitability [4, 15]: some floated. Suitable
- Comment: powder sank or floated [4, 20]: Powder sank
- Comment: suitability [4, 20]: Suitable
- Comment: crystal growth [4, 20]: No crystal growth between 0 C.
- Comment: powder sank or floated [4, 21]: Powder sank
- Comment: suitability [4, 21]: Suitable
- Comment: crystal growth [4, 21]: No crystal growth between 0 C.
- Comment: powder sank or floated [4, 22]: Powder sank
- Comment: suitability [4, 22]: Suitable
- Comment: crystal growth [4, 22]: No crystal growth between 0 C.
- Comment: suitability [4, 16]: Suitable
- Comment: crystal growth or other change [4, 17]: No crystal growth between 0 C.
- Comment: powder sank or floated [4, 17]: Powder sank
- Comment: suitability ([4]; powder pesticide (glyphosate acid 2, 2,4-D acid 1.3, others 1 wt %) in 40% AMS, no wetting agent): Suitable
- Comment: crystal growth or other change [4, 18]: No crystal growth between 0 C.
- Comment: powder sank or floated [4, 18]: Powder sank
- Comment: dissolution [4, 19]: Powder almost dissolved
- suitability for suspension in fertilizer solutions [4]: appears to be suitable
- Comment: crystal growth [5]: No crystal growth between 0 C.

Compound: CON=C(C(=O)OC)c1ccccc1CON=C(C)c1cccc(C(F)(F)F)c1 [Trifloxystrobin]
- Comment: powder sank or floated [1, 10]: 0-40 °C Powder sank.
- Comment: suitability [1, 10]: Suitable
- Comment: powder sank or floated [1, 11]: 0-40 °C Powder sank.
- Comment: suitability [1, 11]: Suitable
- Comment: powder sank or floated [1, 12]: 0-40 °C Powder sank.
- Comment: suitability [1, 12]: Suitable
- Comment: powder sank or floated [1, 13]: 0-40 °C Powder sank.
- Comment: suitability [1, 13]: Suitable
- crystal growth in the fertilizer solutions tested [1]: did not have crystal growth
- flow and stability of the resulting SC [6]: easily flowable and stable
- flow at 2° C. ([6]; same SC, 2° C.): still able to flow
- clear phase at the bottom [6, 14]: less than 2.5%
- re-mixing ([6]; same SC, after a week at 50° C., inverting the container): remixed easily
- used alone, diluted with water, dispersed to a fertilizer concentrate ([3]; 36.63 wt % Trifloxystrobin SC in 10-34-0): without forming crystal and coagulation

Compound: CCCCC(CC)COS(=O)(=O)[O-].[Na+] (stereo not drawn) [Witcolate D510, 2-ethylhexyl sulfate]
- dissolution of surfactant in URAN 32 [7]: dissolved in URAN 32 readily
- Appearance ([8]; 27-4-0 76.6, surfactant 23.4 wt): Clear

Compound: C4-C6 phosphate ester with less than 7EO units (acid form)
- surfactant in place of Witcolate D-510 to produce similar clothianidin suspensions [9]: suitable

Compound: Sodium C810 sulfate [Sodium C810 sulfate (40%)]
- Appearance ([8]; 10-34-0 56.1, Water 30.7, surfactant 13.2 wt): Clear
- Appearance ([8]; 27-4-0 81.2, surfactant 18.8 wt): Clear

Compound: Sodium Laureth-2 sulfate [Witconate ES-2]
- Appearance ([8]; 27-4-0 91.3, surfactant 8.7 wt): Clear
